# Source: ChEMBL document CHEMBL1201862, “PubChem BioAssay data set” (2004)
#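 48-hour exposure; five concentrations; linearly interpolated endpoints. GI50 is the concentration that inhibits growth by half.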 Active and inactive are the calls of the source. No stated cut-off is given here; in the data, active = GI50 up to about 1.1 µM and inactive = higher.
# How the values were obtained:
# Assay in all cases: NCI anticancer screen, dose series, 48 h
# [1] = system: MDA-MB-231
# [2] = system: NCI-H460
# [3] = system: UO-31
# [4] = system: Hs-578T
# [5] = system: EKVX
# [6] = system: NCI-H226
# [7] = system: CCRF-CEM
# [8] = system: OVCAR-4
# [9] = system: OVCAR-3
# [10] = system: HCT-15
# [11] = system: HOP-92
# [12] = system: NCI-H522
# [13] = system: MOLT-4
# [14] = system: RXF 393
# [15] = system: OVCAR-5
# [16] = system: DU-145
# [17] = system: MCF7
# [18] = system: SK-MEL-2
# [19] = system: SN12C
# [20] = system: SK-MEL-28
# [21] = system: HOP-62
# [22] = system: SK-OV-3
# [23] = system: LOX IMVI
# [24] = system: Malme-3M
# [25] = system: SF-268
# [26] = system: 786-0
# [27] = system: MDA-MB-435
# [28] = system: BT-549
# [29] = system: M14
# [30] = system: T47D
# [31] = system: U-251
# [32] = system: TK-10
# [33] = system: A498
# [34] = system: PC-3
# [35] = system: SW-620
# [36] = system: UACC-62
# [37] = system: OVCAR-8
# [38] = system: IGROV-1
# [39] = system: COLO 205
# [40] = system: SF-295
# [41] = system: CAKI-1
# [42] = system: KM12
# [43] = system: NCI/ADR-RES
# [44] = system: SF-539
# [45] = system: MDA-N
# [46] = system: SK-MEL-5
# [47] = system: ACHN
# [48] = system: A549
# [49] = system: RPMI-8226
# [50] = system: HT-29
# [51] = system: HCC 2998
# [52] = system: SR
# [53] = system: SNB-19
# [54] = system: HCT-116
# [55] = system: UACC-257
# [56] = system: NCI-H23
# [57] = system: K562
# [58] = system: SNB-75
# [59] = system: HL-60
structure (smiles),measurement,setting,value
COc1cc2c3c(cc(Cl)nc3c1OC)C(O)(CC(C)=O)C(=O)N2 (configuration not stated),GI50,[1],17 µM (inactive)
same,GI50,[2],36 µM (inactive)
same,GI50,[3],23.2 µM (inactive)
same,GI50,[4],40.3 µM (inactive)
same,GI50,[5],16.2 µM (inactive)
same,GI50,[6],> 42.3 µM (inactive)
same,GI50,[7],9.18 µM (inactive)
same,GI50,[8],17.8 µM (inactive)
same,GI50,[9],33 µM (inactive)
same,GI50,[10],> 43.4 µM
same,GI50,[11],19.1 µM (inactive)
same,GI50,[12],8.97 µM (inactive)
same,GI50,[13],9.35 µM (inactive)
same,GI50,[14],16.3 µM (inactive)
same,GI50,[15],> 42.4 µM (inactive)
same,GI50,[16],> 39.1 µM (inactive)
same,GI50,[17],16 µM (inactive)
same,GI50,[18],20.3 µM (inactive)
same,GI50,[19],21.7 µM (inactive)
same,GI50,[20],> 45.4 µM (inactive)
same,GI50,[21],> 44.6 µM (inactive)
same,GI50,[22],> 47.1 µM (inactive)
same,GI50,[23],16.3 µM (inactive)
same,GI50,[24],15.9 µM (inactive)
same,GI50,[25],6.07 µM (inactive)
same,GI50,[26],17.1 µM (inactive)
same,GI50,[27],16.4 µM (inactive)
same,GI50,[28],16.8 µM (inactive)
same,GI50,[29],18.9 µM (inactive)
same,GI50,[30],3.2 µM (inactive)
same,GI50,[31],57.8 µM (inactive)
same,GI50,[32],20.2 µM (inactive)
same,GI50,[33],18.3 µM (inactive)
same,GI50,[34],25.1 µM (inactive)
same,GI50,[35],27.4 µM (inactive)
same,GI50,[36],16.6 µM (inactive)
same,GI50,[37],18.5 µM (inactive)
same,GI50,[38],19.1 µM (inactive)
same,GI50,[39],38.1 µM (inactive)
same,GI50,[40],> 100 µM (inactive)
same,GI50,[41],22.1 µM (inactive)
same,GI50,[42],> 45.5 µM (inactive)
same,GI50,[43],> 44.9 µM (inactive)
same,GI50,[44],> 100 µM (inactive)
same,GI50,[45],17.3 µM (inactive)
same,GI50,[46],> 41 µM (inactive)
same,GI50,[47],24.9 µM (inactive)
same,GI50,[48],> 42.9 µM (inactive)
same,GI50,[49],23.8 µM (inactive)
same,GI50,[50],> 45.7 µM (inactive)
same,GI50,[51],> 44 µM (inactive)
same,GI50,[52],19.3 µM (inactive)
same,GI50,[53],> 40.3 µM (inactive)
same,GI50,[54],17.3 µM (inactive)
same,GI50,[55],8 µM (inactive)
same,GI50,[56],30.7 µM (inactive)
same,GI50,[57],18.5 µM (inactive)
same,GI50,[58],38.6 µM (inactive)
same,GI50,[59],6.79 µM (inactive)
CC(C)(C)c1cc(C(=O)/C=C/c2ccc(C(=O)O)cc2)cc(C(C)(C)C)c1,GI50,[1],3.87 µM (inactive)
same,GI50,[2],1.94 µM (inactive)
same,GI50,[3],5.47 µM (inactive)
same,GI50,[4],1.42 µM (inactive)
same,GI50,[5],3.19 µM (inactive)
same,GI50,[6],1.53 µM (inactive)
same,GI50,[7],2.91 µM (inactive)
same,GI50,[8],6.14 µM (inactive)
same,GI50,[9],2.35 µM (inactive)
same,GI50,[10],1.91 µM
same,GI50,[11],6.68 µM (inactive)
same,GI50,[12],4.34 µM (inactive)
same,GI50,[13],2.37 µM (inactive)
same,GI50,[14],1.5 µM (inactive)
same,GI50,[15],4.9 µM (inactive)
same,GI50,[16],2.77 µM (inactive)
same,GI50,[17],3.87 µM (inactive)
same,GI50,[18],2.94 µM (inactive)
same,GI50,[19],2.11 µM (inactive)
same,GI50,[20],2.38 µM (inactive)
same,GI50,[21],2.32 µM (inactive)
same,GI50,[22],2.87 µM (inactive)
same,GI50,[23],3.2 µM (inactive)
same,GI50,[24],1.42 µM (inactive)
same,GI50,[25],2.18 µM (inactive)
same,GI50,[26],4.09 µM (inactive)
same,GI50,[27],2.16 µM (inactive)
same,GI50,[28],2.21 µM (inactive)
same,GI50,[29],1.5 µM (inactive)
same,GI50,[30],5.56 µM (inactive)
same,GI50,[31],3.13 µM (inactive)
same,GI50,[32],3.37 µM (inactive)
same,GI50,[33],1.92 µM (inactive)
same,GI50,[34],4.48 µM (inactive)
same,GI50,[35],3.42 µM (inactive)
same,GI50,[36],1.77 µM (inactive)
same,GI50,[37],2.44 µM (inactive)
same,GI50,[38],3.8 µM (inactive)
same,GI50,[39],2.12 µM (inactive)
same,GI50,[40],2.58 µM (inactive)
same,GI50,[41],3.86 µM (inactive)
same,GI50,[42],2.4 µM (inactive)
same,GI50,[43],2.42 µM (inactive)
same,GI50,[44],1.36 µM (inactive)
same,GI50,[45],2.32 µM (inactive)
same,GI50,[46],3.99 µM (inactive)
same,GI50,[47],4 µM (inactive)
same,GI50,[48],2.07 µM (inactive)
same,GI50,[49],1.16 µM (inactive)
same,GI50,[50],3.05 µM (inactive)
same,GI50,[51],1.82 µM (inactive)
same,GI50,[52],2.4 µM (inactive)
same,GI50,[53],2.36 µM (inactive)
same,GI50,[54],2.73 µM (inactive)
same,GI50,[55],10.1 µM (inactive)
same,GI50,[57],3.21 µM (inactive)
same,GI50,[58],0.885 µM (active)
same,GI50,[59],3.51 µM (inactive)
